Like-named read-outs stand apart in the source and are kept apart here.
Columns and labels:
H1975 cells = experiment: Cellular growth inhibition (sulforhodamine B); format: cell-based, Human; details: Table 9; for IC50: Homo sapiens, NCI-H1975
erbB2 = erbB2 (Homo sapiens, UniProt P04626); experiment: Inhibition of basal phospho-erbB2 in SKOV3 cells (Western blot); format: cell-based; design: endogenous in cells; host or cells: SKOV3 human ovarian carcinoma cells; details: Table 8
Source text: Values are plotted using SigmaPlot 10.

[1] = Chemical stability by HPLC; details: HPLC after 24 h at 37° C.
[2] = Plasma and tissue pharmacokinetics of prodrug 42 in H1975 tumour bearing mice; format: in vivo; details: female, NIH-III, mouse, 20 umol/kg, single iv dose of 42 at 20 μmol/kg
Description: Compound 42 was dosed at a nominal low dose of 20 μmol/kg to nine female NIH-III mice bearing H1975 tumour xenografts, as a solution in DMSO/5% dextrose (20:80) via intravenous injection. […] The frozen powders were then collected in pre-weighed microcentrifuge tubes (kept on dry ice). Four volumes of ice cold acetonitrile (containing 0.5 μM D6-161 as an internal standard) was added to each sample to extract the drug from the tissue powder. […] To 10 μL of plasma (collected in EDTA) was added 40 μL of ice cold acetonitrile (containing 0.5 μM D6-161 as an internal standard). The resulting solution was mixed and then centrifuged at 13,000 rpm for 5 min.

H1975 xenografts = experiment: In vivo efficacy in H1975 xenografts; design: species or system mice
[3] = Plasma and A431 tumour pharmacokinetics of compounds 42 and 161
SW620 cells = experiment: Cellular growth inhibition (sulforhodamine B); format: cell-based, Human; details: Table 3
Description: Human A431, BT474, SKBR3, SKOV3, SW620, H1975 and HT29 carcinoma cells in log phase exponential growth in alpha minimal essential media (αMEM) containing 5% fetal bovine serum (FBS), were harvested by trypsinisation (1× trypsin/EDTA, Gibco Brl), counted, and seeded into 96 well plates (Nunc) at cell densities ranging from 800-1500 cells/well. Half of the cell samples were seeded into plates that were pre-equilibrated and held in an anoxic environment (90% N2, 5% H2, 5% CO2, 37° Q Anaerobic chamber, Coy Laboratory Products). […] At the end of this period the anoxic plates were recovered from the anaerobic camber and held under normoxia in a standard CO2 incubator (37° C.) for 20 hours. All plates were washed free of compound and cells were allowed to proliferate for a further 4 days in αMEM containing 5% FBS+antibiotics. Cells were fixed in trichloroacteic acid (30 min), washed and stained with sulforhodamine B (SRB, 60 min) prior to washing in acidified water. SRB was solubilised and absorption read at 450 nm to calculate cell densities. Inhibition of proliferation was calculated relative to untreated control wells.

Solubility by HPLC = details: α-MEM cell culture medium
erbB1 [4] = target: T1, erbB1 (Homo sapiens, UniProt P00533); experiment: Isolated enzyme inhibition (Invitrogen Z′-LYTE kinase assay); format: biochemical; details: 10 μM ATP, duplicate
T1 sequence (P00533 25-1210): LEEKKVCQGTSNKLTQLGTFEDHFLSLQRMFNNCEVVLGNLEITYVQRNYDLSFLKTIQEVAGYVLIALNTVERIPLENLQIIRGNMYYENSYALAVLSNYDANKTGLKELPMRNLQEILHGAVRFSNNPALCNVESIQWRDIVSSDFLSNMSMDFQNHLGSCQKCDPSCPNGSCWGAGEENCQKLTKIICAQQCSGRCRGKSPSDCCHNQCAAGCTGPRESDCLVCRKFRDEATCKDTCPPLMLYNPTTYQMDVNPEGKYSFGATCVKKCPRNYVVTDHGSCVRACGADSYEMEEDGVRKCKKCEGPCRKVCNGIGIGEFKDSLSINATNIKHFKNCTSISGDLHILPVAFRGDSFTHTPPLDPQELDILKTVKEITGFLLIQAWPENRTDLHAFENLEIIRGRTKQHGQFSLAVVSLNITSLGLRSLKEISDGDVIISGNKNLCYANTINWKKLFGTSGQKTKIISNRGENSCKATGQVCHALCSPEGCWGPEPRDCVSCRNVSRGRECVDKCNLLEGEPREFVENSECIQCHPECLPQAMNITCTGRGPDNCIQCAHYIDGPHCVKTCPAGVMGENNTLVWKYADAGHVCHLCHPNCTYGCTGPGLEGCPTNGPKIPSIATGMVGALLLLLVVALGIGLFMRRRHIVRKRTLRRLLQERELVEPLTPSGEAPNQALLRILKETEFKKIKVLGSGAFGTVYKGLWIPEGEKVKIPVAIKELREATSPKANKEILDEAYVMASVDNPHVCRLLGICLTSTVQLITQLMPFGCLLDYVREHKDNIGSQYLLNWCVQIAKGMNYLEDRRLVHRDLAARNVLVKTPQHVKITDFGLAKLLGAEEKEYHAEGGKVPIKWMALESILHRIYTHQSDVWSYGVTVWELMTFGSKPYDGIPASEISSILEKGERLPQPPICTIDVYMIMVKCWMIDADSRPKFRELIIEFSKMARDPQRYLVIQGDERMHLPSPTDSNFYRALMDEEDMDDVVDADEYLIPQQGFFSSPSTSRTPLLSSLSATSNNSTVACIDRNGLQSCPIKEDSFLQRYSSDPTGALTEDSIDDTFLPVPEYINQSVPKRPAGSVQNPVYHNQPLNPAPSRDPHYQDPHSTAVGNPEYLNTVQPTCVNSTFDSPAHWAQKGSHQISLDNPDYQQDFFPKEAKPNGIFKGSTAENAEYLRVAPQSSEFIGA

[5] = Plasma and A431 tumour pharmacokinetics of compounds 11 and 20
Description: A small piece (˜100 mg) of tissue was placed in biopulveriser well (previously cooled in liquid nitrogen) and reduced to fine powder with a 2-3 strong blows to the stainless steel pestle. The frozen powder was collected in pre-weighed microcentrifuge tube (kept on dry ice). […] The microcentrifuge tubes were spun at 13,000 rpm for 10 min to precipitate the cell debris and proteins. […] The analytes were eluted using a gradient of 0.01% formic acid in acetonitrile (80%)-water (20%) mixture and 0.01% formic acid in water (100%) on Zorbax SB 018, rapid resolution HT 3.0×50 mm, 1.8 micron (Agilent) HPLC column with a flow rate of 0.6 ml/min.

erbB1 [6] = target: T1, erbB1; experiment: Cellular erbB1 inhibition: irreversibility wash-out assay in A431 cells; details: 1 μM, 1 hour exposure, then EGF stimulation
SKBR3 cells = experiment: Cellular growth inhibition (sulforhodamine B); format: cell-based, Human; details: Table 3
A431 cells = experiment: Oxic and hypoxic cellular metabolism of prodrug 20; format: in vitro ADME, Human; details: 10 uM prodrug
Description: (§1) A431 and SKOV3 cells were grown in a 175 flask and seeded at 40K, a density which gave an 80-90% confluent cell layer after 7 days growth. Cells were washed with PBS, harvested with 0.05% trypsin/EDTA, centrifuged at 1000 rpm for 5 mins at room temperature and re-suspended in a 1 mL of cell culture medium (α-MEM containing 10% FCS, 10 mM D-Glucose and 0.2 mM 2′-deoxycytidine). Cell numbers were determined with the Coulter counter and the appropriate number of cells was transferred to a new tube. 5×10^5 cells per well were plated into wells of a 24-well plate in a total volume of 350 μL/well (i.e. 14.3×10^5 cells/mL). Cells were incubated at 37° C. for two hours to attach to the wells and for anoxic samples to equilibrate. […] The cells were incubated for 1, 2 or 3 hours at 37° C. At the appropriate time the 24 well plate was removed from the incubator/anoxic chamber and placed on ice. The contents of each well was transferred to the microcentrifuge tube kept on ice. 800 μL of acetonitrile (spiked with D6 internal standards of compounds 11 and 20, each 0.5 uM) was added to each of the drug treated wells to allow efficient extraction from the cell monolayer. Then the entire contents (1200 uL=400+800 uL) was vortex mixed and transferred to −80° C. for storage until they were run on the LC-MS/MS system. A similar procedure was followed for the control samples. […]

SKOV3 cells = experiment: Oxic and hypoxic cellular metabolism of prodrug 20; format: in vitro ADME, Human; details: 10 uM prodrug
Description: as §1

[7] = Steady state radiolytic reduction by the CO2.− radical with HPLC-MS; format: physicochemical
[8] = single ip dose of 20 at 133 umol/kg
[9] = HPLC-MS at 0.95 reducing equivalents

Chain of erbB2 (P04626 23-1255): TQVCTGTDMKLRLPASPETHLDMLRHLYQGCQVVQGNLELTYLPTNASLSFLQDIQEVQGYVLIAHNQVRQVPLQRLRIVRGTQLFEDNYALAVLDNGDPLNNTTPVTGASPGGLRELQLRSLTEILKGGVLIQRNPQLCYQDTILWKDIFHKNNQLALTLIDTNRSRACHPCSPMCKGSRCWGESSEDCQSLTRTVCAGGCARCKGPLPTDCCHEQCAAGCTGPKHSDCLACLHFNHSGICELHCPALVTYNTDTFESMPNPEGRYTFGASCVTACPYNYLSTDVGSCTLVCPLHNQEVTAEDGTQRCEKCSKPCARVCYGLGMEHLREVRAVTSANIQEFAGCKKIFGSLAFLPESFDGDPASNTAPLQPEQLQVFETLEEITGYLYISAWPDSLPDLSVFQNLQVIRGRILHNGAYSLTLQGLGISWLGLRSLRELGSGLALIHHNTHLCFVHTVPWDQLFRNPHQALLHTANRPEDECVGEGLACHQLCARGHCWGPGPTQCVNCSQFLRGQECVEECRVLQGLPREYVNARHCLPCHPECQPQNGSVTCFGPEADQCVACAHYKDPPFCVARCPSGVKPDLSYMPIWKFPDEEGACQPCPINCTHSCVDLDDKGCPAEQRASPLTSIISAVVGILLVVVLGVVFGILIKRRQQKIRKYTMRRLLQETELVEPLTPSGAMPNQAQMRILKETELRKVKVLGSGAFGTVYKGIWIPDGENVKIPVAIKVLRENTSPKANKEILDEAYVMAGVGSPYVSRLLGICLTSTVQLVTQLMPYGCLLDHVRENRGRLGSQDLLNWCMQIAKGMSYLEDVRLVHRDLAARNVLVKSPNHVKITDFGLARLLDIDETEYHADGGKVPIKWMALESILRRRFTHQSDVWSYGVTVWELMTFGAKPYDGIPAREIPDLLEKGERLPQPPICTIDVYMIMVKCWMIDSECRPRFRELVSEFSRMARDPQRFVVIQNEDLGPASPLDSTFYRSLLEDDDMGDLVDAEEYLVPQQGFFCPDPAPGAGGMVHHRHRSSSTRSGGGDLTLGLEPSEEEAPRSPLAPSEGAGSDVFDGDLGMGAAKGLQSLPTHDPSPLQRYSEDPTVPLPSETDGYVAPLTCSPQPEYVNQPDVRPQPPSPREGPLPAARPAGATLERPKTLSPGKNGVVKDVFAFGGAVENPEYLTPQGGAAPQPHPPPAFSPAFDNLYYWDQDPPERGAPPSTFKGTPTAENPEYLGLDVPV

Cn1cnc([N+](=O)[O-])c1C[N+](C)(C)C/C=C/C(=O)Nc1cc2c(Nc3ccc(F)c(Br)c3)ncnc2cn1 [Compound 42, (2E)-4-{[4-(3-bromo-4-fluoroanilino)pyrido[3,4-d]pyrimidin-6-yl]amino}-N,N-dimethyl-N-[(1-methyl-4-nitro-1H-imidazol-5-yl)methyl]-4-oxo-2-buten-1-ammonium bromide]
solubility (physchem; aqueous buffer): 129 µM
solubility (physchem; water): > 1160 µM
IC50 (H1975 cells; 24 hour exposure oxic, read-out: Cellular Growth Inhibition IC50 H1975 Oxic): 37.2 µM
IC50 (H1975 cells; first 4 hours anoxic, read-out: Cellular Growth Inhibition IC50 H1975 Anoxic): 4.22 µM
H1975 Deact. (H1975 cells): 30 fold
H1975 HCR (H1975 cells): 10.8 fold
Deact. erbB2 (fold reduction in cellular inhibition relative to the parent kinase inhibitor) (erbB2; SKOV3 cells): 35 fold
IC50 (erbB2; basal phospho-erbB2 in SKOV3 cells, read-out: Cellular Enzyme Inhibition IC50 erbB2): 212 nM
Stability PBS (percentage parent remaining) [1]: 77%
Stability Water (percentage parent remaining) [1]: 98%
Stability α-MEM + FCS (5%) (percentage parent remaining) [1]: 61%
AUC(0-t) ([2]; H1975 tumour, read-out: AUC0-24 hr H1975 Tumour, 42): 123 µM·h
AUC(0-t) ([2]; liver, read-out: AUC0-24 hr Liver, 42): 256 µM·h
AUC(0-t) ([2]; plasma, read-out: AUC0-24 hr Plasma, 42): 24.7 µM·h
AUC(0-t) ([2]; skin, read-out: AUC0-24 hr Skin, 42): 198 µM·h
tumour growth inhibition (TGI) (H1975 xenografts; H1975 xenografts, equitoxic dose 133 (42) and 42.2 (161) μmol/kg/dose, q3dx4, IP): 188%
tumour growth inhibition (TGI) (H1975 xenografts; H1975 xenografts, q3dx4 at respective MTD, IP): 229%
tumour growth inhibition (TGI) (H1975 xenografts; large H1975 xenografts, 75 umol/kg/dose, q3dx8, IP): 154%
tumour growth inhibition (TGI) (H1975 xenografts; large H1975 xenografts, 100 umol/kg/dose, q3dx8, IP): 213%
tumour growth inhibition (TGI) (H1975 xenografts; large H1975 xenografts, 133 umol/kg/dose, q3dx8, IP): 275%
stable tumour tissue concentration ([3]; prodrug 42, out to 72 h): ~30 µmol/kg
tumour AUC0-72h ([3]; prodrug 42 at 100 umol/kg ip, A431 tumour): 2821 µmol·h/kg
plasma AUC fold greater than for administration of inhibitor 161 ([3]; ~75% of q3dx4 MTD each): ~27 fold

Cn1cnc([N+](=O)[O-])c1C[N+](C)(C)C/C=C/C(=O)Nc1ccc2ncnc(Nc3cccc(Br)c3)c2c1.[Br-] [Compound 20, (2E)-4-{[4-(3-bromoanilino)-6-quinazolinyl]amino}-N,N-dimethyl-N-[(1-methyl-4-nitro-1H-imidazol-5-yl)methyl]-4-oxo-2-buten-1-ammonium bromide]
SW620 Deact. (SW620 cells): 18 fold
SW620 HCR (SW620 cells): 3.1 fold
IC50 (SW620 cells; 24 hour exposure entirely oxic, read-out: Cellular Growth Inhibition IC50 SW620 Oxic): 63.3 µM
IC50 (SW620 cells; first 4 hours anoxic, read-out: Cellular Growth Inhibition IC50 SW620 Anoxic): 20.2 µM
solubility (Solubility by HPLC): 1112 µM
IC50 (erbB1 [4]): 0.47 nM
stable tumour tissue concentration ([5]; prodrug 20, out to 72 h): ~30 µmol/kg
tumour AUC0-72h ([5]; prodrug 20 at 133 umol/kg ip, A431 tumour): 2245 µmol·h/kg
plasma AUC0-72h ([5]; prodrug 20 dosed at 133 umol/kg ip): 2016 µmol·h/L
AUC0-72 hr A431 Tumour, Compound 20 [5, 8]: 2245 µM·h
AUC0-72 hr Plasma, Compound 20 [5, 8]: 2016 µM·h
erbB1 autophosphorylation, cells not washed free of drug (erbB1 [6]): not completely inhibited
SKBR3 Deact. (SKBR3 cells): 49 fold
SKBR3 HCR (SKBR3 cells): 18.1 fold
IC50 (SKBR3 cells; 24 hour exposure entirely oxic, read-out: Cellular Growth Inhibition IC50 SKBR3 Oxic): 3930 nM
IC50 (SKBR3 cells; first 4 hours anoxic, read-out: Cellular Growth Inhibition IC50 SKBR3 Anoxic): 217 nM
rate of hypoxic metabolism to inhibitor 11 (A431 cells): 200 pmol/hour/million cells
rate of hypoxic metabolism to inhibitor 11 (SKOV3 cells): 500 pmol/hour/million cells
Effector release/Prodrug loss ([7]; 0.95 reducing equivalents): 1.00
Detection of MNA (methyl nitroaromatic) ([7]; HPLC-MS): Yes
% Loss of prodrug [7, 9]: 55%
% Release of effector [7, 9]: 55%
release of effector following 1-electron reduction ([7]; steady state radiolysis, HPLC-MS): released effector (compound 11) detected
